We go through one substance from patent US20250222123A1, “COMPOUND COMPRISING FC-BINDING UNIT, AND CONJUGATE PREPARED USING SAME” (ABTIS CO., LTD., priority 2022, published 2025).

Where two headings read alike, the source gives them in different places.

Usually Kd stands for the constant that tells how readily two partners part at equilibrium.

One assay deals with MIA PaCa-2˜CLDN18.2. Nature of the assay: Cell-based ELISA, binding to antigen-expressing cancer cells. As for the experimental part: (§1) Four types of cell lines (MIA PaCa-2˜CLDN18.2, PATU8988S, parental MIA PaCa-2 (CLDN18.2-), and SNU601) were prepared. At this time, MIA PaCa-2˜CLDN18.2 and PATU8988S are CLDN18.2-positive pancreatic cancer cell lines. MIA PaCa-2 (CLDN18.2-) is a CLDN18.2-negative pancreatic cancer cell line. SNU601 is a CLDN18.2-positive gastric cancer cell line.
(§2) The prepared cell lines were cultured in DMEM containing 10% FBS and 1% penicillin/streptomycin (MIA PaCa-2˜CLDN18.2, MIA PaCa-2 (CLDN18.2-)), RPMI1640 containing 10% FBS and 1% penicillin/streptomycin (SNU601), and DMEM comprising 5% FBS, 5% horse serum, 1% penicillin/streptomycin, and […] L-glutamine (PATU8988S) in an incubator under the conditions of 37° C. and 5% CO2.
(§3) The prepared cell lines were plated on 96-well culture plates, treated with antibody-A, ADC-A, antibody-B, and ADC-B, respectively, and then cell-based ELISA was performed, and OD values were measured. At this time, the measured values are illustrated in FIGS. 38 to 41.
(§4) The measured results were used for regression analysis in GraphPad PRISM® 9.0 software to calculate EC50 and Bmax. The cell binding strengths of antibody-A, ADC-A, antibody-B, and ADC-B to each cell line were evaluated based on the calculated values.

Another assay concerns SNU601. Described as above. Conditions: SNU601 (CLDN18.2+). As for the experimental part: as §1, §2, §3, §4
Another assay deals with MIA PaCa-2 (CLDN18.2-). Nature of the assay: Cell-based ELISA, CLDN18.2-negative cancer cells. The format is binding. Conditions: parental MIA PaCa-2, CLDN 18.2-negative cell line. As for the experimental part: as §1, §2, §3, §4
The target of assay [1] is T1, CLDN18.2 virus-like particle (VLP) (Homo sapiens, UniProt P56856).
T1 construct: purchased CUSABIO TECHNOLOGY LLC CSB-MP005498HU (A5)
Nature of the assay: Indirect ELISA on CLDN18.2 virus-like particle (VLP). Conditions: CLDN18.2 (antigen protein), VLP-coated plate. In kind it is binding. As for the experimental part: To confirm the binding strength to an antigen, a CLDN18.2 virus-like particle (VLP) in which the claudin 18.2 protein (CLDN18.2) was expressed was prepared. At this time, CLDN18.2˜VLP is CSB-MP005498HU (A5) from CUSABIO TECHNOLOGY LLC.
After a 96-well plate was coated with the CLDN18.2 VLP for ELISA and treated with antibody-A and ADC-A, respectively, indirect ELISA was performed to measure OD values. At this time, the measured values are illustrated in FIG. 37.
The measured results were used for regression analysis in GraphPad PRISM® 9.0 software to calculate EC50 and Bmax. The antigen binding strengths of antibody-A, ADC-A, antibody-B, and ADC-B were evaluated based on the calculated values.
In general terms: An ELISA detects its analyte on a solid surface through an enzyme-linked reagent.

With Zolbetuximab [Antibody-B], the Bmax in the assay on MIA PaCa-2˜CLDN18.2 came out at 3.053; with SNU601, 1.701; in assay [1], 2.134. Further, the Kd was 0.045 µg/mL in the assay on MIA PaCa-2˜CLDN18.2 (pancreatic cancer cell line), 300 pM in the assay on MIA PaCa-2˜CLDN18.2 (read-out: Kd), 0.032 µg/mL with SNU601 (gastric cancer cell line) and 213 pM in the assay on SNU601 (read-out: Kd). Moreover, the “binding to cell line (in words)” value in the assay with MIA PaCa-2 (CLDN18.2-) is listed as “did not bind”.
